Test results published in US9987332B2, “Pharmaceutical composition for use in the treatment of a neurodegenerative disease” (SANOFI-AVENTIS DEUTSCHLAND GMBH, priority 2011, dated 2018).

Tests used:
[1] = Uptake by the brain: levels in mouse brain tissue after i.p. injection; assay type: in vivo; settings: 2.5 nmol/kg bw ip.
Method: Values are the mean±S.E.M. *p<0.05, **p<0.01.
Values are the mean±S.E.M. *p<0.05.
3 doses (2.5 nmol/kg bw, 25 nmol/kg bw and 250 nmol/kg bw, ip.) were tested, and the levels found in mouse brain tissue 30 min and 3 h post injection were examined.

[2] = Kastin et al 2001; McClean et al 2011; cited from earlier work

Compound	Levels in the brain at the lowest dose [1]	Crossing of the blood brain barrier (BBB) [2]
CCCCCCCCCCCCCCCC(=O)N[C@@H](CCC(=O)NCCCC[C@H](NC(=O)[C@H](C)NC(=O)[C@H](C)NC(=O)[C@H](CCC(N)=O)NC(=O)CNC(=O)[C@H](CCC(=O)O)NC(=O)[C@H](CC(C)C)NC(=O)[C@H](Cc1ccc(O)cc1)NC(=O)[C@H](CO)NC(=O)[C@H](CO)NC(=O)[C@@H](NC(=O)[C@H](CC(=O)O)NC(=O)[C@H](CO)NC(=O)[C@@H](NC(=O)[C@H](Cc1ccccc1)NC(=O)[C@@H](NC(=O)CNC(=O)[C@H](CCC(=O)O)NC(=O)[C@H](C)NC(=O)[C@@H](N)Cc1cnc[nH]1)[C@@H](C)O)[C@@H](C)O)C(C)C)C(=O)N[C@@H](CCC(=O)O)C(=O)N[C@@H](Cc1ccccc1)C(=O)N[C@H](C(=O)N[C@@H](C)C(=O)N[C@@H](Cc1c[nH]c2ccccc12)C(=O)N[C@@H](CC(C)C)C(=O)N[C@H](C(=O)N[C@@H](CCCNC(=N)N)C(=O)NCC(=O)N[C@@H](CCCNC(=N)N)C(=O)NCC(=O)O)C(C)C)[C@@H](C)CC)C(=O)O [liraglutide, Arg^34,Lys^26(N^ε(γ-glutamyl(N^α-hexadecanoyl)))GLP-1(7-37)]	did not show an increase	have been shown to cross the blood brain barrier
GLP-1: 30-amino acid peptide hormone encoded in the proglucagon gene	–	have been shown to cross the blood brain barrier
